Reference: patent US6030963A, “16-ene-26,27-bishomo cholecalciferols” (Hoffmann-La Roche Inc., priority 1998, dated 2000)

What was measured:
HL-60 cells = test: HL-60 cell differentiation (NBT reduction, oxidative burst potential); assay type: cell-based; settings: Homo sapiens, 72 h, 3 days incubation, NBT reduction at 540 nm, mean of 3 wells, S.E.M. between 5 and 10%, read-out: ED50 (concentration leading to 50% of maximal differentiation achieved with 100-1000 nM calcitriol)
Description: HL-60 Cell Differentiation
The induction of differentiation of HL-60 cells was assayed by measuring their oxidative burst potential via the reduction of nitrobluetetrazolium (NBT).
HL-60 cells (30,000 cells in 90 μl of supplemented RPMI medium) were seeded into flat-bottomed microliter wells. Immediately after seeding, 10 μl of test compounds listed below in Table I diluted in supplemented RPMI medium were added to the wells to yield final concentrations of between 10^-11 and 10^-6 M (starting from stock solutions of 10^-2 M in ethanol, stored at -20° C. and protected from light). After 3 days, medium was removed from the wells with a multichannel pipette and replaced with 100 μl of NBT solution (1 mg/ml in phosphate buffered saline with 200 nM phorbol myristate acetate). Following an additional hour incubation at 37° C. the NBT solution was removed and 100 μl of 10% sodium dodecyl sulfate in 0.01 N HCl was added. The amount of the reduced NBT was quantified photometrically at 540 nm using an automated plate reader. The mean of 3 wells was calculated. […] Values were expressed as percent of maximal differentiation achieved with 100-1000 nM calcitriol in the same experiment.

[1] = Calcium tolerance test in mice (weight gain, highest tolerated dose); settings: mouse, in vivo, sc, daily subcutaneous, 4 consecutive days, body weight before and at end of 5 day treatment period, read-out: HTD (highest tolerated dose: dose which results in zero weight gain during treatment period)
From the text: Calcium Tolerance Test In Mice
Profound changes in calcium homeostasis strongly affect the weight development of mice.
Mice (25-30 g body weight) received daily subcutaneous administrations of the compound for 4 consecutive days. Body weight was registered just before and at the end of a […] treatment period. The "highest tolerated dose" (HTD) is the dose which results in zero weight gain during this treatment period.

Row | SMILES | EC50 (HL-60 cells) [nM] | MTD [1] [µg/kg]
1 | C=C1/C(=C\C=C2/CCC[C@]3(C)C([C@H](C)C/C=C/C(O)(CC)CC)=CC[C@@H]23)C[C@@H](O)C[C@@H]1O [1,25-Dihydroxy-16,23E-diene-26,27-bishomo-cholecalciferol] | 3.8 | 2
2 | C=C1/C(=C\C=C2/CCC[C@]3(C)C([C@H](C)C/C=C\C(O)(CC)CC)=CC[C@@H]23)C[C@@H](O)C[C@@H]1O [1,25-Dihydroxy-16,23Z-diene-26,27-bishomo-cholecalciferol] | 6.2 | 2.5
3 | C=C1/C(=C\C=C2/CCC[C@]3(C)C([C@H](C)CC#CC(O)(CC)CC)=CC[C@@H]23)C[C@@H](O)C[C@@H]1O [1,25-Dihydroxy-16-ene-23-yne-26,27-bishomo-cholecalciferol] | 2.5 | 4
